Test results reported in ChEMBL document CHEMBL2401655, “Synthesis and antiprotozoal activity of novel 2-{[2-(1H-imidazol-1-yl)ethyl]sulfanyl}-1H-benzimidazole derivatives” (Bioorg Med Chem Lett, 2013).
pIC50: −log10 of the molar value.

Key:
Type in all cases: functional, organism-based
Trichomonas vaginalis = assay: Antiprotozoal activity against trophozoite stage of Trichomonas vaginalis GT3 assessed as growth inhibition after 48 hrs by haemocytometric analysis; settings: GT3, 48 h
Giardia intestinalis = assay: Antiprotozoal activity against trophozoite stage of Giardia intestinalis IMSS:0981:1 assessed as growth inhibition after 48 hrs by haemocytometric analysis; settings: Giardia duodenalis, IMSS:0981:1, 48 h
Entamoeba histolytica = assay: Antiprotozoal activity against trophozoite stage of Entamoeba histolytica HM-1:IMSS assessed as growth inhibition after 48 hrs by haemocytometric analysis

Cn1c(SCCn2ccnc2)nc2cc(Cl)ccc21
pIC50 (Trichomonas vaginalis): 6.87
pIC50 (Giardia intestinalis): 7.18
pIC50 (Entamoeba histolytica): 7.18

Cn1c(SCCn2ccnc2)nc2cc(Cl)c(Cl)cc21
pIC50 (Trichomonas vaginalis): 7.02
pIC50 (Giardia intestinalis): 7.16
pIC50 (Entamoeba histolytica): 7.19

COC(=O)c1ccc2[nH]c(SCCn3ccnc3)nc2c1
pIC50 (Trichomonas vaginalis): 6.96
pIC50 (Giardia intestinalis): 7.11
pIC50 (Entamoeba histolytica): 7.21

COC(=O)c1cc2nc(SCCn3ccnc3)[nH]c2cc1Cl
pIC50 (Trichomonas vaginalis): 7.14
pIC50 (Giardia intestinalis): 7.26
pIC50 (Entamoeba histolytica): 7.24

COC(=O)c1ccc2nc(SCCn3ccnc3)n(C)c2c1
pIC50 (Trichomonas vaginalis): 6.94
pIC50 (Giardia intestinalis): 7.24
pIC50 (Entamoeba histolytica): 7.28

COC(=O)c1cc2c(cc1Cl)nc(SCCn1ccnc1)n2C
pIC50 (Trichomonas vaginalis): 7.06
pIC50 (Giardia intestinalis): 7.25
pIC50 (Entamoeba histolytica): 7.37

COC(=O)c1ccc2c(c1)nc(SCCn1ccnc1)n2C
pIC50 (Trichomonas vaginalis): 7.11
pIC50 (Giardia intestinalis): 7.21
pIC50 (Entamoeba histolytica): 7.37

COC(=O)c1cc2nc(SCCn3ccnc3)n(C)c2cc1Cl
pIC50 (Trichomonas vaginalis): 7.03
pIC50 (Giardia intestinalis): 7.35
pIC50 (Entamoeba histolytica): 7.29

CCOc1ccc2[nH]c(SCCn3ccnc3)nc2c1
pIC50 (Trichomonas vaginalis): 7.14
pIC50 (Giardia intestinalis): 7.25
pIC50 (Entamoeba histolytica): 7.37

CCOc1cc2nc(SCCn3ccnc3)[nH]c2cc1Cl
pIC50 (Trichomonas vaginalis): 7.00
pIC50 (Giardia intestinalis): 7.33
pIC50 (Entamoeba histolytica): 7.21

CCOc1ccc2nc(SCCn3ccnc3)n(C)c2c1
pIC50 (Trichomonas vaginalis): 7.14
pIC50 (Giardia intestinalis): 7.34
pIC50 (Entamoeba histolytica): 7.39

CCOc1cc2c(cc1Cl)nc(SCCn1ccnc1)n2C
pIC50 (Trichomonas vaginalis): 7.16
pIC50 (Giardia intestinalis): 7.45
pIC50 (Entamoeba histolytica): 7.34

CCOc1ccc2c(c1)nc(SCCn1ccnc1)n2C
pIC50 (Trichomonas vaginalis): 7.12
pIC50 (Giardia intestinalis): 8.08
pIC50 (Entamoeba histolytica): 7.53

CCOc1cc2nc(SCCn3ccnc3)n(C)c2cc1Cl
pIC50 (Trichomonas vaginalis): 7.01
pIC50 (Giardia intestinalis): 7.68
pIC50 (Entamoeba histolytica): 7.83

Cn1c(SCCn2ccnc2)nc2ccc(Cl)cc21
pIC50 (Trichomonas vaginalis): 6.89
pIC50 (Giardia intestinalis): 7.20
pIC50 (Entamoeba histolytica): 7.17

c1ccc2[nH]c(SCCn3ccnc3)nc2c1
pIC50 (Trichomonas vaginalis): 6.75
pIC50 (Giardia intestinalis): 6.93
pIC50 (Entamoeba histolytica): 6.83

Clc1ccc2[nH]c(SCCn3ccnc3)nc2c1
pIC50 (Trichomonas vaginalis): 6.77
pIC50 (Giardia intestinalis): 7.09
pIC50 (Entamoeba histolytica): 7.13

Clc1cc2nc(SCCn3ccnc3)[nH]c2cc1Cl
pIC50 (Trichomonas vaginalis): 6.85
pIC50 (Giardia intestinalis): 7.12
pIC50 (Entamoeba histolytica): 7.23

Cn1c(SCCn2ccnc2)nc2ccccc21
pIC50 (Trichomonas vaginalis): 6.83
pIC50 (Giardia intestinalis): 7.06
pIC50 (Entamoeba histolytica): 7.11

Cc1ncc([N+](=O)[O-])n1CCO [METRONIDAZOLE]
pIC50 (Entamoeba histolytica): 6.42
